In PubChem BioAssay AID256 (DTP/NCI, 2004):
Several values for one entry are separate records, joined by “and”; a condition that tells them apart may be missing. Identical values can stand only once. Toxic doses and inconclusive results are not listed. The calls were made as follows: active = survival T/C of 150% or more; inactive = T/C below 125% in these data.

Test system: CD2F1 mice, L1210 leukemia ip, survival T/C
Experiment: NCI In Vivo Anticancer Drug Screen. Data for tumor model L1210 Leukemia (intraperitoneal) in CD2F1 (CDF1) mice
Conditions: higher = longer survival
How it was run: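 Implant tumor; dose compound or vehicle; measure endpoint in both groups; report treated divided by control.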

[1] = endpoint: mean survival time, dose: 12.5 mg/kg/injection, schedule: Q01DX009 (ip), vehicle: saline with Tween-80
[2] = endpoint: mean survival time, dose: 25.0 mg/kg/injection, schedule: Q01DX009 (ip), vehicle: saline with Tween-80
[3] = endpoint: mean survival time, dose: 100.0 mg/kg/injection, schedule: Q01DX009 (ip), vehicle: saline with Tween-80
[4] = endpoint: mean survival time, dose: 200.0 mg/kg/injection, schedule: Q01DX009 (ip), vehicle: saline with Tween-80
[5] = endpoint: mean survival time, dose: 400.0 mg/kg/injection, schedule: Q01DX009 (ip), vehicle: saline with Tween-80
[6] = endpoint: mean survival time, dose: 100.0 mg/kg/injection, schedule: Q04DX003 (ip), vehicle: saline with Tween-80
[7] = endpoint: mean survival time, dose: 200.0 mg/kg/injection, schedule: Q04DX003 (ip), vehicle: saline with Tween-80
[8] = endpoint: mean survival time, dose: 400.0 mg/kg/injection, schedule: Q04DX003 (ip), vehicle: saline with Tween-80
[9] = endpoint: mean survival time, dose: 12.5 mg/kg/injection, schedule: Q01DX009 (ip), vehicle: water
[10] = endpoint: mean survival time, dose: 100.0 mg/kg/injection, schedule: Q01DX001 (ip), vehicle: saline
[11] = endpoint: mean survival time, dose: 200.0 mg/kg/injection, schedule: Q01DX001 (ip), vehicle: saline
[12] = endpoint: mean survival time, dose: 100.0 mg/kg/injection, schedule: Q04DX002 (ip), vehicle: saline with Tween-80
[13] = endpoint: mean survival time, dose: 200.0 mg/kg/injection, schedule: Q04DX002 (ip), vehicle: saline with Tween-80
[14] = endpoint: mean survival time, dose: 400.0 mg/kg/injection, schedule: Q04DX002 (ip), vehicle: saline with Tween-80
[15] = endpoint: mean survival time, dose: 400.0 mg/kg/injection, schedule: Q01DX001 (ip), vehicle: saline

Measured: T/C

C[Si](C)(C)n1nnn(-c2ccccc2)c1=O
inactive: [1] 97 % of control and 100 % of control | [2] 97 % of control | endpoint: mean survival time, dose: 50.0 mg/kg/injection, schedule: Q01DX009 (ip), vehicle: saline with Tween-80 97 % of control and 101 % of control | [3] 100 % of control and 103 % of control | [4] 100 % of control and 103 % of control | [5] 101 % of control

CSc1cccc(NC2=NCCO2)c1
inactive: [6] 90 % of control | [7] 93 % of control | [8] 86 % of control

O=C1C=CC(=O)N1c1cccc(N2C(=O)C=CC2=O)c1
inactive: endpoint: mean survival time, dose: 4.0 mg/kg/injection, schedule: Q01DX009 (ip), vehicle: saline 96 % of control | endpoint: mean survival time, dose: 8.0 mg/kg/injection, schedule: Q01DX009 (ip), vehicle: saline 106 % of control

CC(C)CCCC(C)C1CCC2C3CC(C(=O)O)C(C)(CCC(=O)O)C3CCC12C (stereo not given)
inactive: endpoint: mean survival time, dose: 75.0 mg/kg/injection, schedule: Q01DX001 (ip), vehicle: other 108 % of control | endpoint: mean survival time, dose: 150.0 mg/kg/injection, schedule: Q01DX001 (ip), vehicle: other 104 % of control

Cc1ccc(-n2c(=S)[nH]c3ccccc3c2=O)cc1F
inactive: endpoint: mean survival time, dose: 100.0 mg/kg/injection, schedule: Q01DX001 (ip), vehicle: saline with Tween-80 92 % of control | [3] 88 % of control | endpoint: mean survival time, dose: 200.0 mg/kg/injection, schedule: Q01DX001 (ip), vehicle: saline with Tween-80 92 % of control | [4] 88 % of control | endpoint: mean survival time, dose: 400.0 mg/kg/injection, schedule: Q01DX001 (ip), vehicle: saline with Tween-80 89 % of control | [5] 93 % of control

CC(=O)Nc1ccccc1Sc1ccncc1[N+](=O)[O-]
inactive: [3] 100 % of control | [6] 88 % of control | [4] 100 % of control | [7] 92 % of control | [5] 90 % of control | [8] 95 % of control

N/C(=N\c1nc(N)cc(=O)[nH]1)Nc1ccc(S(N)(=O)=O)cc1
inactive: endpoint: mean survival time, dose: 100.0 mg/kg/injection, schedule: Q01DX009 (ip), vehicle: saline 96 % of control | endpoint: mean survival time, dose: 200.0 mg/kg/injection, schedule: Q01DX009 (ip), vehicle: saline 95 % of control | endpoint: mean survival time, dose: 400.0 mg/kg/injection, schedule: Q01DX009 (ip), vehicle: saline 95 % of control

CCOC(=O)C(C)C(=O)C(C)N1C(=O)c2ccccc2C1=O (stereo not given)
inactive: [9] 95 % of control | endpoint: mean survival time, dose: 25.0 mg/kg/injection, schedule: Q01DX009 (ip), vehicle: water 95 % of control | endpoint: mean survival time, dose: 50.0 mg/kg/injection, schedule: Q01DX009 (ip), vehicle: water 95 % of control | endpoint: mean survival time, dose: 100.0 mg/kg/injection, schedule: Q01DX009 (ip), vehicle: water 100 % of control | endpoint: mean survival time, dose: 200.0 mg/kg/injection, schedule: Q01DX009 (ip), vehicle: water 96 % of control

Cn1c(=O)c2c(ncn2CN2CCN(Cn3cnc4c3c(=O)n(C)c(=O)n4C)CC2)n(C)c1=O
inactive: [10] 94 % of control | [11] 97 % of control

Cc1cc(=O)c(C#N)c(-c2ccccc2)[nH]1
inactive: [12] 96 % of control | [13] 100 % of control | [14] 87 % of control

NC(=O)CC(N)C(=O)O.[Cl-].[Cl-].[Cl-].[Cl-].[Pt+2] (stereo not given)
inactive: endpoint: mean survival time, dose: 0.78 mg/kg/injection, schedule: Q01DX009 (ip), vehicle: water 101 % of control | endpoint: mean survival time, dose: 1.56 mg/kg/injection, schedule: Q01DX009 (ip), vehicle: water 95 % of control | endpoint: mean survival time, dose: 3.13 mg/kg/injection, schedule: Q01DX009 (ip), vehicle: water 98 % of control | endpoint: mean survival time, dose: 6.25 mg/kg/injection, schedule: Q01DX009 (ip), vehicle: water 90 % of control | [9] 101 % of control

Nc1nc(N)c2c(n1)CCCC2
inactive: [1] 93 % of control | [2] 88 % of control

Oc1ccc(/C=N/N=C/c2ccc(O)c(O)c2)cc1O
inactive: endpoint: median survival time, dose: 25.0 mg/kg/injection, schedule: Q01DX009 (ip), vehicle: saline with Tween-80 108 % of control | endpoint: median survival time, dose: 50.0 mg/kg/injection, schedule: Q01DX009 (ip), vehicle: saline with Tween-80 110 % of control | endpoint: median survival time, dose: 100.0 mg/kg/injection, schedule: Q01DX009 (ip), vehicle: saline with Tween-80 112 % of control

CC(C)C1CCC(C)C(C(O)(C(F)(F)F)C(F)(F)F)C1O (stereo not given)
inactive: [10] 101 % of control | [12] 98 % of control | [11] 101 % of control | [13] 98 % of control | [15] 97 % of control | [14] 94 % of control

COC(=O)C(NC(=O)C(C)NC(=O)OCc1ccccc1)C(C)C (stereo not given)
inactive: [3] 97 % of control | [4] 93 % of control | [5] 98 % of control

c1ccc2c(c1)[nH]c1c2cc[n+]2cc3c(cc12)CCCC3
inactive: endpoint: mean survival time, dose: 5.0 mg/kg/injection, schedule: Q01DX001 (ip), vehicle: saline 100 % of control | endpoint: mean survival time, dose: 10.0 mg/kg/injection, schedule: Q01DX001 (ip), vehicle: saline 101 % of control | endpoint: mean survival time, dose: 20.0 mg/kg/injection, schedule: Q01DX001 (ip), vehicle: saline 106 % of control | endpoint: mean survival time, dose: 40.0 mg/kg/injection, schedule: Q01DX001 (ip), vehicle: saline 109 % of control

Cc1cc(O)c2c(c1O)C(=O)c1cccc(O)c1C2=O
inactive: endpoint: mean survival time, dose: 0.75 mg/kg/injection, schedule: Q01DX009 (ip), vehicle: Klucel (hydroxypropylcellulose) (HPC) 103 % of control | endpoint: mean survival time, dose: 1.5 mg/kg/injection, schedule: Q01DX009 (ip), vehicle: Klucel (hydroxypropylcellulose) (HPC) 98 % of control | endpoint: mean survival time, dose: 3.0 mg/kg/injection, schedule: Q01DX009 (ip), vehicle: Klucel (hydroxypropylcellulose) (HPC) 101 % of control | endpoint: mean survival time, dose: 6.0 mg/kg/injection, schedule: Q01DX009 (ip), vehicle: Klucel (hydroxypropylcellulose) (HPC) 113 % of control

ClCC(CCl)c1nncc2ccccc12
inactive: [10] 94 % of control | [11] 97 % of control | [15] 93 % of control

COc1ccc(C(C)C(O)c2ccccc2)cc1 (stereo not given)
inactive: endpoint: mean survival time, dose: 100.0 mg/kg/injection, schedule: Q04DX003 (ip), vehicle: saline 103 % of control | endpoint: mean survival time, dose: 200.0 mg/kg/injection, schedule: Q04DX003 (ip), vehicle: saline 108 % of control | endpoint: mean survival time, dose: 400.0 mg/kg/injection, schedule: Q04DX003 (ip), vehicle: saline 102 % of control

CC(=O)c1ccc2c3c(ccc([N+](=O)[O-])c13)C(=O)OC2=O
inactive: [6] 91 % of control | [7] 95 % of control

Br/C1=C/CCCCCC1
inactive: endpoint: mean survival time, dose: 37.5 mg/kg/injection, schedule: Q01DX009 (ip), vehicle: saline 94 % of control | endpoint: mean survival time, dose: 75.0 mg/kg/injection, schedule: Q01DX009 (ip), vehicle: saline 94 % of control | endpoint: mean survival time, dose: 150.0 mg/kg/injection, schedule: Q01DX009 (ip), vehicle: saline 104 % of control

O=C1C=CC(=O)C=C1 (tested in a mixture with another compound)
inactive: endpoint: mean survival time, dose: 1.0 mg/kg/injection, schedule: Q01DX009 (ip), vehicle: saline sonified 98 % of control | endpoint: mean survival time, dose: 1.0 mg/kg/injection, schedule: Q04DX003 (ip), vehicle: saline with Tween-80 97 % of control | endpoint: mean survival time, dose: 2.0 mg/kg/injection, schedule: Q01DX009 (ip), vehicle: saline sonified 94 % of control | endpoint: mean survival time, dose: 2.0 mg/kg/injection, schedule: Q04DX003 (ip), vehicle: saline with Tween-80 95 % of control | endpoint: mean survival time, dose: 3.0 mg/kg/injection, schedule: Q01DX009 (ip), vehicle: saline sonified 98 % of control | endpoint: mean survival time, dose: 3.0 mg/kg/injection, schedule: Q04DX003 (ip), vehicle: saline with Tween-80 95 % of control | endpoint: mean survival time, dose: 6.0 mg/kg/injection, schedule: Q01DX009 (ip), vehicle: saline sonified 90 % of control | endpoint: mean survival time, dose: 6.0 mg/kg/injection, schedule: Q04DX003 (ip), vehicle: saline with Tween-80 97 % of control

CC(C)(C)N1CCOCC1
inactive: [6] 100 % of control
